Data reported in patent US10618903B2, “Heteroaryl substituted aminopyridine compounds” (BRISTOL-MYERS SQUIBB COMPANY, priority 2015, dated 2020).

Assays:
[1] = target: IRAK4 (Homo sapiens (Human), UniProt Q9NWZ3); test: IRAK4 Inhibition Assay; type: biochemical; conditions: ATP 500 μM; IRAK4 0.6 nM
Method in brief: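 Mobility-shift kinase assay: 0.6 nM IRAK4, 500 μM ATP, 1.5 μM fluorescent peptide, 60 min, room temperature. Percent inhibition was normalised between enzyme-free and DMSO-only wells.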

[2] = Caco Permeability Assay; type: in vitro ADME; conditions: human, Caco-2, Caco-2 cells, 3 μM compound
[3] = tested on: IL-6 levels in human whole blood stimulated with a TLR2 agonist; test: IRAK4 Whole Blood Assay (lipoteichoic acid/TLR2-stimulated IL-6); type: cell-based; conditions: Homo sapiens, lipoteichoic acid 10 μg/mL, IL-6 readout
Method in brief: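 IL-6 was quantified by cytometric bead assay in supernatants of human blood (ACD-A) stimulated for 5 h with lipoteichoic acid at 10 μg/mL final. Compound exposure preceded stimulation for 60 min at 37 °C, 5% CO2.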

Sequence of IRAK4 (Q9NWZ3 whole entry): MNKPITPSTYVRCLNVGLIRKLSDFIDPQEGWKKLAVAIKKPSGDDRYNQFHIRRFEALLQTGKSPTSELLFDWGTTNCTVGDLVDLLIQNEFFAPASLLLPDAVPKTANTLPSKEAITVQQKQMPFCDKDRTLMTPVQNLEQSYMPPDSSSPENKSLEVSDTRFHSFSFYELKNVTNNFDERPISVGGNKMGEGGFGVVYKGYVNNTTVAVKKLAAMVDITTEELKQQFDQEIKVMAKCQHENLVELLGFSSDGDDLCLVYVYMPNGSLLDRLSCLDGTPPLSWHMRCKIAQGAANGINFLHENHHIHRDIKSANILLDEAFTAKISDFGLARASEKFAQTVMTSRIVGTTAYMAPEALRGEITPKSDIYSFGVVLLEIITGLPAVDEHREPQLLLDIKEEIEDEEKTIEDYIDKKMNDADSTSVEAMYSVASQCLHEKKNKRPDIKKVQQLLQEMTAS

SMILES	IC50 [1] [nM]	Papp at 2 h, 3 µM [2] [×10⁻⁶ cm/s]	EC50 [3] [nM]
C[C@H](F)CNc1cc(-c2cnn3cc(Cl)cnc23)ncc1C(=O)NC[C@@H](F)C(C)(C)O [Example 61, 6-(6-chloropyrazolo[1,5-a]pyrimidin-3-yl)-N—((R)-2-fluoro-3-hydroxy-3-methylbutyl)-4-(((S)-2-fluoropropyl)amino)nicotinamide]	6	19.7	1820
CC(F)(F)CNc1cc(-c2cnn3cc(C#N)cnc23)ncc1C(=O)NC[C@@H](F)C(C)(C)O [Example 172, (R)-6-(6-cyanopyrazolo[1,5-a]pyrimidin-3-yl)-4-((2,2-difluoropropyl)amino)-N-(2-fluoro-3-hydroxy-3-methylbutyl)nicotinamide]	4	4.2	460
CC(=O)N[C@H]1CC[C@H](NC(=O)c2cnc(-c3cnn4cc(Cl)cnc34)cc2NC(C)C)CC1 [Example 23, N-((1r,4r)-4-acetamidocyclohexyl)-6-(6-chloropyrazolo[1,5-a]pyrimidin-3-yl)-4-(isopropylamino) nicotinamide]	10	1.8	720
CC(C)(O)[C@H](F)CNC(=O)c1cnc(-c2cnc3cc(Cl)cnn23)cc1NC1CCC1 [Example 180, (R)-6-(7-chloroimidazo[1,2-b]pyridazin-3-yl)-4-(cyclobutylamino)-N-(2-fluoro-3-hydroxy-3-methylbutyl)nicotinamide]	2	16.5	930
CCNc1cc(-c2cnc3cc(Cl)cnn23)ncc1C(=O)NC[C@@H](F)C(C)(C)O [Example 178, (R)-6-(7-chloroimidazo[1,2-b]pyridazin-3-yl)-4-(ethylamino)-N-(2-fluoro-3-hydroxy-3-methylbutyl)nicotinamide]	4	21.5	710
CC(C)(O)CCNC(=O)c1cnc(-c2cnn3cc(Cl)cnc23)cc1NC1COC1 [Example 47, 6-(6-chloropyrazolo[1,5-a]pyrimidin-3-yl)-N-(3-hydroxy-3-methylbutyl)-4-(oxetan-3-ylamino)nicotinamide]	8	17.3	350
CC(C)(O)[C@H](F)CNC(=O)c1cnc(-c2cnn3cc(C#N)cnc23)cc1N[C@@H]1CCC[C@@H]1F [Example 105, 6-(6-cyanopyrazolo[1,5-a]pyrimidin-3-yl)-N—((R)-2-fluoro-3-hydroxy-3-methylbutyl)-4-(((1R,2S)-2-fluorocyclopentyl)amino) nicotinamide]	7	8.6	240
CC(C)(O)[C@H](F)CNC(=O)c1cnc(-c2cnn3cc(Cl)cnc23)cc1Nc1cnn(C(F)F)c1 [Example 231, (R)-6-(6-chloropyrazolo[1,5-a]pyrimidin-3-yl)-4-((1-(difluoromethyl)-1H-pyrazol-4-yl)amino)-N-(2-fluoro-3-hydroxy-3-methylbutyl) nicotinamide]	1	12.6	340
CCNc1cc(-c2cnc3cc(C#N)cnn23)ncc1C(=O)NC[C@@H](F)C(C)(C)O [Example 188, (R)-6-(7-cyanoimidazo[1,2-b]pyridazin-3-yl)-4-(ethylamino)-N-(2-fluoro-3-hydroxy-3-methylbutyl)nicotinamide]	5	6.7	240

Continued by falling IC50 [1], values first:

IC50 [1] [nM]	Papp at 2 h, 3 µM [2] [×10⁻⁶ cm/s]	EC50 [3] [nM]	SMILES
8	14.2	650	CC(C)Nc1cc(-c2cnn3cc(C#N)cnc23)ncc1C(=O)NCCC(C)(C)C#N [Example 169, N-(3-cyano-3-methylbutyl)-6-(6-cyanopyrazolo[1,5-a]pyrimidin-3-yl)-4-(isopropylamino)nicotinamide]
6	< 1.5	2030	COc1cnc(N2CC[C@@H](Nc3cc(-c4cnn5cc(C#N)cnc45)ncc3C(=O)NC[C@@H](F)C(C)(C)O)C2)nc1 [Example 115, 6-(6-cyanopyrazolo[1,5-a]pyrimidin-3-yl)-N—((R)-2-fluoro-3-hydroxy-3-methylbutyl)-4-(((R)-1-(5-methoxypyrimidin-2-yl)pyrrolidin-3-yl)amino)nicotinamide]
6	4.8	700	CC(C)Nc1cc(-c2cnn3cc(Cl)cnc23)ncc1C(=O)NCC(F)C1(O)COC1 (stereo not drawn) [Example 37, 6-(6-chloropyrazolo[1,5-a]pyrimidin-3-yl)-N-(2-fluoro-2-(3-hydroxyoxetan-3-yl)ethyl)-4-(isopropylamino)nicotinamide]
5	14.3	360	CCNc1cc(-c2cnn3cc(Cl)cnc23)ncc1C(=O)NC[C@@H](F)C(C)(C)O [Example 56, (R)-6-(6-chloropyrazolo[1,5-a]pyrimidin-3-yl)-4-(ethylamino)-N-(2-fluoro-3-hydroxy-3-methylbutyl) nicotinamide]
5	2.1	220	CC(C)(O)CCNC(=O)c1cnc(-c2cnc3cc(Cl)cnn23)cc1NC1COC1 [Example 218, 6-(7-chloroimidazo[1,2-b]pyridazin-3-yl)-N-(3-hydroxy-3-methylbutyl)-4-(oxetan-3-ylamino)nicotinamide]
4	15.8	550	CC(C)(O)[C@H](F)CNC(=O)c1cnc(-c2cnc3cc(Cl)cnn23)cc1NC1CC(F)C1 (stereo partly drawn) [Example 199, (R)-6-(7-chloroimidazo[1,2-b]pyridazin-3-yl)-N-(2-fluoro-3-hydroxy-3-methylbutyl)-4-((3-fluorocyclobutyl)amino)nicotinamide]
3	< 1.5	80	CC(C)(O)[C@H](F)CNC(=O)c1cnc(-c2cnc3cc(C#N)cnn23)cc1NC1CCOC1 (stereo partly drawn) [Example 201, 6-(7-cyanoimidazo[1,2-b]pyridazin-3-yl)-N—((R)-2-fluoro-3-hydroxy-3-methylbutyl)-4-((tetrahydrofuran-3-yl)amino) nicotinamide]
2	2.1	220	CC(F)(F)Cn1cc(Nc2cc(-c3cnn4cc(C#N)cnc34)ncc2C(=O)NC[C@@H](F)C(C)(C)O)cn1 [Example 238, (R)-6-(6-cyanopyrazolo[1,5-a]pyrimidin-3-yl)-4-((1-(2,2-difluoropropyl)-1H-pyrazol-4-yl)amino)-N-(2-fluoro-3-hydroxy-3-methylbutyl)nicotinamide]
1	6.6	200	CC(C)(O)[C@H](F)CNC(=O)c1cnc(-c2cnn3cc(Cl)cnc23)cc1Nc1cnn(C2CCC2)c1 [Example 250, (R)-6-(6-chloropyrazolo[1,5-a]pyrimidin-3-yl)-4-((1-cyclobutyl-1H-pyrazol-4-yl)amino)-N-(2-fluoro-3-hydroxy-3-methylbutyl)nicotinamide]
1	14.4	350	CC(F)(F)Cn1cc(Nc2cc(-c3cnn4cc(Cl)cnc34)ncc2C(=O)NC[C@@H](F)C(C)(C)O)cn1 [Example 239, (R)-6-(6-chloropyrazolo[1,5-a]pyrimidin-3-yl)-4-((1-(2,2-difluoropropyl)-1H-pyrazol-4-yl)amino)-N-(2-fluoro-3-hydroxy-3-methylbutyl)nicotinamide]
